Laboratory results reported in patent US20250215029A1 (Recludix Pharma, Inc., priority 2022, published 2025).

Legend:
[1] = molecular target: T1, Recombinant STAT3 protein (STAT3 (G127-I722)) (Homo sapiens, UniProt P40763); assay: STAT3 Fluorescence Polarization (FP) Assay; format: binding; conditions: STAT3 (G127-I722) 25 nM, probe 5-FAM-GpYLPQTV-NH2 2 nM, 45-minute incubation; read-out: STAT3 (FP assay IC50 class)
T1 construct: Recombinant STAT3 protein (STAT3 (G127-I722))
Procedure, shortened: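 Displacement of a fluorescent phosphotyrosine peptide (5-FAM-GpYLPQTV-NH2, 2 nM) from 25 nM recombinant STAT3 G127-I722 was monitored by FP after 45 min at room temperature.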

[2] = molecular target: T2, Recombinant STAT6 protein (STAT6 (W123-T658)) (Homo sapiens, UniProt P42226); assay: STAT6 Fluorescence Polarization (FP) Assay; format: binding; conditions: STAT6 (W123-T658) 250 nM, probe 5-FAM-Ap[…]-NH2 2 nM, 45-minute incubation; read-out: STAT6 (FP assay IC50 class)
T2 construct: Recombinant STAT6 protein (STAT6 (W123-T658))
T2 sequence (P42226 123-658): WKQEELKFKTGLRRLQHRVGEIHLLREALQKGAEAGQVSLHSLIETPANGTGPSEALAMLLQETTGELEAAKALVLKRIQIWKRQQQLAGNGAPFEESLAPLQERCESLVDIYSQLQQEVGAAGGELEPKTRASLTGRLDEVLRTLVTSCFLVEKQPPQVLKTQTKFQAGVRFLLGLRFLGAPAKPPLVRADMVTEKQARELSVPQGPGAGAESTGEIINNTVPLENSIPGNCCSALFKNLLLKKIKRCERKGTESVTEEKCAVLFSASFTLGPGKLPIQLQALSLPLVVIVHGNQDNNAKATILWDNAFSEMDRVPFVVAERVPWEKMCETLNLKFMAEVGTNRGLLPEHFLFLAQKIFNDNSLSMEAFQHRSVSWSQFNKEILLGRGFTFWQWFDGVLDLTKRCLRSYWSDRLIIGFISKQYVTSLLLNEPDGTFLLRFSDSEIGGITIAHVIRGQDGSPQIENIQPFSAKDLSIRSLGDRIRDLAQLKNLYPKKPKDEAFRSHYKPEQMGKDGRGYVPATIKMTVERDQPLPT
Procedure, shortened: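 Probe displacement format: serially diluted compounds incubated 45 min at room temperature with 2 nM fluorescent phosphopeptide and 250 nM STAT6 (W123-T658) in pH 7.4 HEPES buffer, 1% DMSO final. Polarization signal plotted against log concentration, IC50 fitted by nonlinear regression.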

T1 sequence (P40763 127-722): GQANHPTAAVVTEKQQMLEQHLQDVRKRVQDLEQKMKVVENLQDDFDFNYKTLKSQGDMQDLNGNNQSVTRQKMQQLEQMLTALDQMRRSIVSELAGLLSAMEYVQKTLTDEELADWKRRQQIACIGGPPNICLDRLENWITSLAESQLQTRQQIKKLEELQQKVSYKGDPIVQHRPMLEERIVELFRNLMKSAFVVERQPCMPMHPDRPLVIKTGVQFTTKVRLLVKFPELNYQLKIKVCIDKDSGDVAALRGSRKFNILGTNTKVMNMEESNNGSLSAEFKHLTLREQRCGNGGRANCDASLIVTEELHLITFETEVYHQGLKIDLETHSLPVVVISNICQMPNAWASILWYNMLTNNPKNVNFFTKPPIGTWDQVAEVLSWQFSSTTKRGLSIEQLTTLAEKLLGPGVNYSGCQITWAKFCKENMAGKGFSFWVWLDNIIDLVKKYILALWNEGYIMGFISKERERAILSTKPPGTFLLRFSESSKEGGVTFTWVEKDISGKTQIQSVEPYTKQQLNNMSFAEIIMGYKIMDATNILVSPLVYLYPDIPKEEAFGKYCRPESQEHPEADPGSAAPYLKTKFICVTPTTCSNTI

Row | SMILES | IC50 [1] [µM] | IC50 [2] [µM]
1 | O=C(N[C@H]1CCCC[C@H]2CC[C@@H](C(=O)N3CC(NCC(F)F)(c4ccccn4)C3)N2C1=O)c1cc2cc(C(F)P(=O)(O)O)ccc2s1 (stereo partly drawn) [Compound 761, ((2-(((3S,6S,10aS)-3-(3-((2,2-difluoroethyl)amino)-3-(pyridin-2-yl)azetidine-1-carbonyl)-5-oxodecahydropyrrolo[1,2-a]azocin-6-yl)carbamoyl)benzo [b]thiophen-5-yl)fluoromethyl) phosphonic acid] | < 0.1 | 3 to 30
2 | O=C(N[C@H]1CCC[C@H]2CC[C@@H](C(=O)N3CC(c4cnccc4F)C3)N2C1=O)c1cc2cc(C(F)(F)P(=O)(O)O)ccc2s1 [Compound 762, (difluoro(2-(((3S,6S,9aS)-3-(3-(4-fluoropyridin-3-yl)azetidine-1-carbonyl)-5-oxooctahydro-1H-pyrrolo[1,2-a]azepin-6-yl)carbamoyl)benzo [b]thiophen-5-yl)methyl) phosphonic acid] | < 0.1 | 0.3 to 3
3 | CN1CCN(C(=O)[C@@H]2CC[C@@H]3CCC[C@H](NC(=O)c4cc5cc(C(F)P(=O)(O)O)ccc5s4)C(=O)N32)c2ccccc21 (stereo partly drawn) [Compound 763, (fluoro(2-(((3S,6S,9aS)-3-(4-methyl-1,2,3,4-tetrahydro-quinoxaline-1-carbonyl)-5-oxooctahydro-1H-pyrrolo[1,2-a]azepin-6-yl)carbamoyl)benzo [b]thiophen-5-yl)methyl) phosphonic acid] | 1 to 10 | 3 to 30
4 | COc1ncncc1C1CN(C(=O)[C@@H]2CC[C@@H]3CCC[C@H](NC(=O)c4cc5cc(C(F)P(=O)(O)O)ccc5s4)C(=O)N32)C1 (stereo partly drawn) [Compound 764, (fluoro(2-(((3S,6S,9aS)-3-(3-(4-methoxypyrimidin-5-yl)azetidine-1-carbonyl)-5-oxooctahydro-1H-pyrrolo[1,2-a]azepin-6-yl)carbamoyl)benzo [b]thiophen-5-yl)methyl) phosphonic acid] | 0.1 to 1 | 3 to 30
5 | O=C(N[C@H]1CCC[C@H]2CC[C@@H](C(=O)N3CC(c4cnccc4N4CCC4)C3)N2C1=O)c1cc2cc(CP(=O)(O)O)ccc2s1 [Compound 765, ((2-(((3S,6S,9aS)-3-(3-(4-(azetidin-1-yl)pyridin-3-yl)azetidine-1-carbonyl)-5-oxooctahydro-1H-pyrrolo[1,2-a]azepin-6-yl)carbamoyl)benzo [b]thiophen-5-yl)methyl) phosphonic acid] | < 0.1 | 3 to 30
6 | COc1ccncc1C1CN(C(=O)[C@@H]2CC[C@@H]3C[C@H](C)C[C@H](NC(=O)c4cc5cc([C@H](F)P(=O)(O)O)ccc5s4)C(=O)N32)C1 [Compound 766, ((R)-fluoro(2-(((3S,6S,8R,9aR)-3-(3-(4-methoxypyridin-3-yl)azetidine-1-carbonyl)-8-methyl-5-oxooctahydro-1H-pyrrolo[1,2-a]azepin-6-yl)carbamoyl)benzo [b]thiophen-5-yl)methyl) phosphonic acid] | < 0.1 | 3 to 30
7 | COC1(c2nccn2C)CN(C(=O)[C@@H]2CC[C@@H]3CCC4(CC4)C[C@H](NC(=O)c4cc5cc(C(F)(F)P(=O)(O)O)ccc5s4)C(=O)N32)C1 [Compound 768, (difluoro(2-(((3′S,6′S,10a′S)-3′-(3-methoxy-3-(1-methyl-1H-imidazol-2-yl)azetidine-1-carbonyl)-5′-oxooctahydro-5′H-spiro[cyclopropane-1,8′-pyrrolo[1,2-a]azocin]-6′-yl)carbamoyl)benzo [b]thiophen-5-yl)methyl) phosphonic acid] | 0.1 to 1 | 3 to 30
8 | Cc1cc(C2CN(C(=O)[C@@H]3CC[C@@H]4CCC[C@H](NC(=O)c5cc6cc(C(F)P(=O)(O)O)ccc6s5)C(=O)N43)C2)ccn1 (stereo partly drawn) [Compound 769, (fluoro(2-(((3S,6S,9aS)-3-(3-(2-methylpyridin-4-yl)azetidine-1-carbonyl)-5-oxooctahydro-1H-pyrrolo[1,2-a]azepin-6-yl)carbamoyl)benzo [b]thiophen-5-yl)methyl) phosphonic acid] | < 0.1 | 3 to 30
9 | CC(=O)N1CCOC2(C1)CN(C(=O)[C@@H]1CC[C@@H]3CCC[C@H](NC(=O)c4cc5cc(C(F)P(=O)(O)O)ccc5s4)C(=O)N31)C2 (stereo partly drawn) [Compound 770, ((2-(((3S,6S,9aS)-3-(8-acetyl-5-oxa-2,8-diazaspiro[3.5]nonane-2-carbonyl)-5-oxooctahydro-1H-pyrrolo[1,2-a]azepin-6-yl)carbamoyl)benzo [b]thiophen-5-yl)fluoromethyl) phosphonic acid] | 1 to 10 | 3 to 30
10 | O=C(N[C@H]1CCCCC[C@H]2CC[C@@H](C(=O)N3CC(C(=O)N4CCOCC4)C3)N2C1=O)c1cc2cc(C(F)(F)P(=O)(O)O)ccc2s1 [Compound 773, (difluoro(2-(((3S,6S,11aS)-3-(3-(morpholine-4-carbonyl)azetidine-1-carbonyl)-5-oxodecahydro-1H-pyrrolo[1,2-a]azonin-6-yl)carbamoyl)benzo [b]thiophen-5-yl)methyl) phosphonic acid] | 0.1 to 1 | > 30
11 | O=C(N[C@H]1CCCC[C@H]2CC[C@@H](C(=O)N3CC4(CC(=O)c5nccn54)C3)N2C1=O)c1cc2cc(C(F)(F)P(=O)(O)O)ccc2s1 [Compound 774, (difluoro(2-(((3S,6S,10aS)-5-oxo-3-(7′-oxo-6′,7′-dihydrospiro[azetidine-3,5′-pyrrolo[1,2-a]imidazole]-1-carbonyl)decahydropyrrolo[1,2-a]azocin-6-yl)carbamoyl)benzo [b]thiophen-5-yl)methyl) phosphonic acid] | < 0.1 | 3 to 30
12 | Cc1ncccc1C1CN(C(=O)[C@@H]2CC[C@@H]3CCC[C@H](NC(=O)c4cc5cc(C(F)(F)P(=O)(O)O)ccc5s4)C(=O)N32)C1 [Compound 775, (difluoro(2-(((3S,6S,9aS)-3-(3-(2-methylpyridin-3-yl)azetidine-1-carbonyl)-5-oxooctahydro-1H-pyrrolo[1,2-a]azepin-6-yl)carbamoyl)benzo [b]thiophen-5-yl)methyl) phosphonic acid] | < 0.1 | 0.3 to 3
13 | N#CC1(c2ccccn2)CN(C(=O)[C@@H]2CC[C@@H]3CCC[C@H](NC(=O)c4cc5cc(C(F)(F)P(=O)(O)O)ccc5s4)C(=O)N32)C1 [Compound 776, ((2-(((3S,6S,9aS)-3-(3-cyano-3-(pyridin-2-yl)azetidine-1-carbonyl)-5-oxooctahydro-1H-pyrrolo[1,2-a]azepin-6-yl)carbamoyl)benzo [b]thiophen-5-yl)difluoromethyl) phosphonic acid] | < 0.1 | 0.3 to 3
14 | COCC1(c2ccccc2)CN(C(=O)[C@@H]2CC[C@@H]3CCC[C@H](NC(=O)c4cc5cc(C(F)(F)P(=O)(O)O)ccc5s4)C(=O)N32)C1 [Compound 777, (difluoro(2-(((3S,6S,9aS)-3-(3-(methoxymethyl)-3-phenylazetidine-1-carbonyl)-5-oxooctahydro-1H-pyrrolo[1,2-a]azepin-6-yl)carbamoyl)benzo [b]thiophen-5-yl)methyl) phosphonic acid] | < 0.1 | 0.3 to 3
15 | Cc1ccccc1C1CN(C(=O)[C@@H]2CC[C@@H]3CCC[C@H](NC(=O)c4cc5cc(C(F)(F)P(=O)(O)O)ccc5s4)C(=O)N32)C1 [Compound 778, (difluoro(2-(((3S,6S,9aS)-5-oxo-3-(3-(o-tolyl)azetidine-1-carbonyl)octahydro-1H-pyrrolo[1,2-a]azepin-6-yl)carbamoyl)benzo [b]thiophen-5-yl)methyl) phosphonic acid] | < 0.1 | 0.3 to 3
16 | Cn1cnnc1C1CN(C(=O)[C@@H]2CC[C@@H]3CCC[C@H](NC(=O)c4cc5cc(C(F)(F)P(=O)(O)O)ccc5s4)C(=O)N32)C1 [Compound 779, (difluoro(2-(((3S,6S,9aS)-3-(3-(4-methyl-4H-1,2,4-triazol-3-yl)azetidine-1-carbonyl)-5-oxooctahydro-1H-pyrrolo[1,2-a]azepin-6-yl)carbamoyl)benzo [b]thiophen-5-yl)methyl) phosphonic acid] | < 0.1 | 3 to 30
17 | N#CC1CN(C(=O)[C@@H]2CC[C@@H]3CCC[C@H](NC(=O)c4cc5cc(C(F)(F)P(=O)(O)O)ccc5s4)C(=O)N32)C1 [Compound 780, ((2-(((3S,6S,9aS)-3-(3-cyanoazetidine-1-carbonyl)-5-oxooctahydro-1H-pyrrolo[1,2-a]azepin-6-yl)carbamoyl)benzo [b]thiophen-5-yl)difluoromethyl) phosphonic acid] | 0.1 to 1 | 0.3 to 3
